Where “and” joins values, the source holds several entries; their conditions need not be identical. Equal values may be shown once.
Tests used:
Assay in all cases: 72-hour CellTiter-Glo 2.0 growth inhibition screen (single agent, 9x9 combination dose matrix)
Assay type in all cases: cell-based
AsPC-1 = system: AsPC-1
Description: (§1) Growth inhibition was determined using a 72-hour CellTiter-Glo®2.0 proliferation assay. Combination format was a 9×9 dose matrix. Six of the 20 cell lines received the original two combinations whilst the remaining 14 cell lines received two additional combinations resulting in four combinations in total. Results have been supplied as both Chalice Analyzer files (.mcc) and raw luminescence data.
(§2) Cell lines that have been preserved in liquid nitrogen are thawed and expanded in growth media (see Appendix I). Once cells have reached expected doubling times, screening begins. Cells are seeded in 25 μl of growth media in black 384-well tissue culture treated plates at 500 cells per well (as noted in Analyzer). Cells are equilibrated in assay plates via centrifugation and placed at 37° C. 5% CO2 for twenty-four hours before treatment. […] Compounds are transferred to assay plates using and Echo acoustic liquid handling system. […] of each compound was added at the appropriate concentration for all combination dose points. Therefore, final assay volume would be 25.05 μl. Assay plates are incubated with compound for 3 days and are then analyzed using CellTiter-Glo 2.0. All data points are collected via automated processes and are subject to quality control and analyzed.
(§3) If T≥V_0:100*(1−(T−V_0)/(V−V_0)) • where T is the signal measure for a test article, V is the untreated/vehicle-treated control measure, and Vo is the untreated/vehicle control measure at time zero (also colloquially referred as TO plates). This formula is derived from the Growth Inhibition calculation used in the National Cancer Institute's NCI-60 high throughput screen. For the purposes of this disclosure, all data analysis was performed in Growth Inhibition (except where noted).
(§4) Inhibition is also provided as a measure of cell viability. […] Inhibition of 100% represents no doubling of cell numbers during the treatment window. Both cytostatic and cytotoxic treatments can yield an Inhibition percentage of 100%. Inhibition percentage is calculated as the following: […]
(§5) The fractional inhibition for each component agent and combination point in the matrix is calculated relative to the median of all untreated/vehicle-treated control wells. The Synergy Score equation integrates the experimentally-observed activity volume at each point in the matrix in excess of a model surface numerically derived from the activity of the component agents using the Loewe model for additivity. Additional terms in the Synergy Score equation (above) are used to normalize for various dilution factors used for individual agents and to allow for comparison of synergy scores across an entire experiment. The inclusion of positive inhibition gating or an Idata multiplier removes noise near the zero-effect level, and biases results for synergistic interactions at that occur at high activity levels. Combinations with higher maximum Growth Inhibition (GI) effects or those which are synergistic at low concentrations will have higher Synergy Scores.
(§6) The CI is a rough estimate of how much drug was needed in combination relative to the single agent doses required to achieve the chosen effect level. CI values in the range of 0.5-0.7 are typical for in vitro measurements of current clinical combinations. The CI error (σCI) is calculated using standard error propagation through the CI calculation based on the isobologram errors. In the Chalice Analyzer, the Best CI is reported from the many CI values calculated for each Icut crossing combination. Among all the measured CI values, the one with the largest single-to-noise level (1−CI)/σCI is reported as the Best CI. Best CI Level is the effect level from which the CI is calculated.

Gp2D = system: Gp2D
Description: as §1, §2, §3, §4, §5, §6

HCC1171 = details: HCC1171, Lung; growth inhibition (GI), AUC, single agent, 72 h
Description: as §1, §2, §3, §4, §5, §6

HCC44 = details: HCC44, Lung; growth inhibition (GI), AUC, single agent, 72 h
Description: as §1, §2, §3, §4, §5, §6

HPAF-II = system: HPAF-II
Description: as §1, §2, §3, §4, §5, §6

KYSE-410 = system: KYSE-410
Description: as §1, §2, §3, §4, §5, §6

LS-513 = system: LS-513
Description: as §1, §2, §3, §4, §5, §6

MIA PaCa-2 = system: MIA PaCa-2
Description: as §1, §2, §3, §4, §5, §6

NCI-H1373 = system: NCI-H1373
Description: as §1, §2, §3, §4, §5, §6

NCI-H1792 = system: NCI-H1792
Description: as §1, §2, §3, §4, §5, §6

NCI-H2030 = system: NCI-H2030
Description: as §1, §2, §3, §4, §5, §6

NCI-H23 = system: NCI-H23
Description: as §1, §2, §3, §4, §5, §6

NCI-H358 = system: NCI-H358
Description: as §1, §2, §3, §4, §5, §6

Panc 04.03 = system: Panc 04.03
Description: as §1, §2, §3, §4, §5, §6

SW48 KRAS (G12C/+) = system: SW48 KRAS (G12C/+)
Description: as §1, §2, §3, §4, §5, §6

SW48 = system: SW48
Description: as §1, §2, §3, §4, §5, §6

SW837 = system: SW837
Description: as §1, §2, §3, §4, §5, §6

TOV-21G = details: TOV-21G, Ovary; growth inhibition (GI), AUC, single agent, 72 h
Description: as §1, §2, §3, §4, §5, §6

C=C(F)C(=O)N1CCN(c2nc(OC[C@@H]3CCCN3C)nc3c2CCN(c2cccc4cccc(Cl)c24)C3)C[C@@H]1CC#N [MRTX849]
Loewe Volume (AsPC-1): 0.71 and 0.37
Response Area (AsPC-1; AsPC-1, Pancreas, growth inhibition (GI), AUC, single agent, 72 h): 2.27
Loewe Volume (Gp2D): 0.46 and 0.37
Response Area (Gp2D; Gp2D, Colorectal, growth inhibition (GI), AUC, single agent, 72 h): 1.86
Response Area (HCC1171): 5.95
Response Area (HCC44): 3.02
HSA volume (HPAF-II): 1.34 and 0.93
Response Area (HPAF-II; HPAF-II, Pancreas, growth inhibition (GI), AUC, single agent, 72 h): 2.04
Bliss Volume (KYSE-410): 7.25 and 5.69
HSA volume (KYSE-410): 2.25 and 1.80
Loewe Volume (KYSE-410): 6.19 and 5.14
Response Area (KYSE-410; KYSE-410, Esophageal, growth inhibition (GI), AUC, single agent, 72 h): 2.24
HSA volume (LS-513): 0.51 and 0.34
Loewe Volume (LS-513): 0.85 and 0.46
Response Area (LS-513; LS-513, Colorectal, growth inhibition (GI), AUC, single agent, 72 h): 1.56
HSA volume (MIA PaCa-2): 5.25 and 2.97
Loewe Volume (MIA PaCa-2): 4.29 and 2.30
HSA volume (NCI-H1373): 2.06 and 1.03
Response Area (NCI-H1373; NCl-H1373, Lung, growth inhibition (GI), AUC, single agent, 72 h): 4.82
HSA volume (NCI-H1792): 4.71 and 3.40
Loewe Volume (NCI-H1792): 5.13 and 3.37
Response Area (NCI-H1792; NCl-H1792, Lung, growth inhibition (GI), AUC, single agent, 72 h): 3.02
HSA volume (NCI-H2030): 1.90 and 1.28
Response Area (NCI-H2030; NCl-H2030, Lung, growth inhibition (GI), AUC, single agent, 72 h): 2.65
HSA volume (NCI-H23): 5.10 and 2.97
Loewe Volume (NCI-H23): 4.80 and 2.46
Response Area (NCI-H23; NCl-H23, Lung, growth inhibition (GI), AUC, single agent, 72 h): 4.15
HSA volume (NCI-H358): 2.90
Response Area (NCI-H358; NCl-H358, Lung, growth inhibition (GI), AUC, single agent, 72 h): 5.85
HSA volume (Panc 04.03): 0.64 and 0.37
Loewe Volume (Panc 04.03): 3.31 and 1.76
Response Area (Panc 04.03; Panc 04.03, Pancreas, growth inhibition (GI), AUC, single agent, 72 h): 2.20
HSA volume (SW48 KRAS (G12C/+)): 4.53
Loewe Volume (SW48 KRAS (G12C/+)): 4.75 and 2.96
Response Area (SW48 KRAS (G12C/+); SW48 KRAS (G12C/+), Colorectal, growth inhibition (GI), AUC, single agent, 72 h): 2.88
Bliss Volume (SW48): 9.14 and 4.79
HSA volume (SW48): 3.40 and 2.30
Loewe Volume (SW48): 6.95 and 4.49
Response Area (SW48; SW48, Colorectal, growth inhibition (GI), AUC, single agent, 72 h): 2.78
HSA volume (SW837): 6.87 and 4.50
Loewe Volume (SW837): 5.57
Response Area (SW837; SW837, Colorectal, growth inhibition (GI), AUC, single agent, 72 h): 5.55
Response Area (TOV-21G): 2.28

From patent US20240016781A1, “TREATMENT OF KRAS MUTANT CANCERS” (MEI Pharma, Inc., priority 2020, published 2024)
